Experimental findings from patent US4273866A, “Ligand analog-irreversible enzyme inhibitor conjugates and methods for use” (priority 1979, dated 1981) are described below.

The structures appear in SMILES notation.

The assay has as its target acetylcholinesterase (T.californica) (Tetronarce californica, UniProt P04058). As to the kind of experiment: Antibody modulation of inhibition by Compound II and reversal by cholylglycine. Format: biochemical. The procedure:
Antibody against cholylglycine-bovine serum albumin (BSA) conjugates were raised in rabbits, and the rabbit serum obtained by conventional techniques. The anti-cholylglycine IgG fraction was obtained by ammonium sulfate fractionation and ion exchange chromatography. The concentration of antibody was not determined but was adjusted from a pooled fraction from the ion exchange column to give best modulation of inhibition by Compound II. […] The experiment is carried out on an ABA-100® model bichromatic analyzer (Abbott Laboratories, North Chicago, Illinois) and the following settings were used:
The substrate solution and buffer are placed in the primary syringe of the dilution plate. The buffer is pH 7.0, 0.1 M potassium phosphate, 0.1% gelatin. The substrate is acetylthiocholine at 5.0×10^-4 M with DTNB at 1.6×10^-4 M as indicator. […] In all cases, the acetylcholinesterase (T.californica) concentration is approximately 2×10^-10 M and Compound II, the inhibitor, concentration is 10×10^-7 M. Where cholylglycine is added, the concentration in the sample cup is 10^-3 M. The sample cup contains pH 7.0, 0.1 M potassium phosphate buffer containing 0.1% gelatin plus the indicated components in the table: […]

The mark [1] stands for this setting: enzyme + the substance only, T = 0 (E alone .246).
The mark [2] stands for this setting: enzyme + the substance only, T = 13 min (E alone .237).
The mark [3] stands for this setting: enzyme + the substance only, T = 25 min (E alone .234).
Where [4] appears, read: enzyme + the substance only, T = 36 min (E alone .230).

Sequence of acetylcholinesterase (T.californica) (P04058 22-564): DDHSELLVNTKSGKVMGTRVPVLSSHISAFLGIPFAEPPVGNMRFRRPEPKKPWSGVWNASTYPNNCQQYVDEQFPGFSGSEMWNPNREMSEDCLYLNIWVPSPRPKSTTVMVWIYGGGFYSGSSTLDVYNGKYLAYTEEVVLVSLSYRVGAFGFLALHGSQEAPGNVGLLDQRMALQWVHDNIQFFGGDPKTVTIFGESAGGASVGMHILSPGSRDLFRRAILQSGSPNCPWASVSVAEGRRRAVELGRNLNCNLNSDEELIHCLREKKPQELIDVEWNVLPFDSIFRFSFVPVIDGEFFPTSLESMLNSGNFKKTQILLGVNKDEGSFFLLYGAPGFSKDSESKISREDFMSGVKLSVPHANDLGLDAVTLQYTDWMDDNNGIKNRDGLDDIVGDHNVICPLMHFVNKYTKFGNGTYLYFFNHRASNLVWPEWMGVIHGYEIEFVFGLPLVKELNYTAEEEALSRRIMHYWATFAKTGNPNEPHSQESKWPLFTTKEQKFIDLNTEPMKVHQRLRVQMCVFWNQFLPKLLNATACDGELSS

For the molecule `C[C@H](CCC(=O)NCC(=O)O)[C@H]1CC[C@H]2[C@@H]3[C@H](O)C[C@@H]4C[C@H](O)CC[C@]4(C)[C@H]3C[C@H](O)[C@]12C` [CG, cholylglycine, reference compound], the “Change in Ad in 5 Minutes” value is “.225 Ad/5 Min” (E + Ab + CG (10^-3 M), no inhibitor, T = 0); “.223 Ad/5 Min” (E + Ab + CG (10^-3 M), no inhibitor, T = 13 min); “.216 Ad/5 Min” (E + Ab + CG (10^-3 M), no inhibitor, T = 25 min); “.207 Ad/5 Min” (E + Ab + CG (10^-3 M), no inhibitor, T = 36 min); “.236 Ad/5 Min” under setting [1]; “.228 Ad/5 Min” under setting [2]. Besides, the “Change in Ad in 5 Minutes” value is on record as “.220 Ad/5 Min” under setting [3] and “.211 Ad/5 Min” under setting [4].
With `CCOP(=O)(OCCCCCNC(=O)CCCCCNC(=O)CC[C@@H](C)[C@H]1CC[C@H]2[C@@H]3[C@H](O)C[C@@H]4C[C@H](O[Si](C)(C)C(C)(C)C)CC[C@]4(C)[C@H]3C[C@H](O)[C@]12C)Oc1ccc2ccc[n+](C)c2c1` (stereo partly drawn) [Compound II], the “Change in Ad in 5 Minutes” value is recorded as “.224 Ad/5 Min” (E + I + Ab + CG (10^-3 M), T = 0); “.078 Ad/5 Min” (E + I + Ab + CG (10^-3 M), T = 13 min); “.032 Ad/5 Min” (E + I + Ab + CG (10^-3 M), T = 25 min); “.017 Ad/5 Min” (E + I + Ab + CG (10^-3 M), T = 36 min); “.235 Ad/5 Min” (E + I + Ab, T = 0); “.192 Ad/5 Min” (E + I + Ab, T = 13 min). In addition, the “Change in Ad in 5 Minutes” value (E + I + Ab, T = 25 min) is reported as “.164 Ad/5 Min”; the “Change in Ad in 5 Minutes” value (E + I + Ab, T = 36 min) is “.147 Ad/5 Min”; the “Change in Ad in 5 Minutes” value (E + I + CG (10^-3 M), T = 0) was “.224 Ad/5 Min”; the “Change in Ad in 5 Minutes” value (E + I + CG (10^-3 M), T = 13 min) was “.062 Ad/5 Min”; the “Change in Ad in 5 Minutes” value (E + I + CG (10^-3 M), T = 25 min) was “.022 Ad/5 Min”; the “Change in Ad in 5 Minutes” value (E + I + CG (10^-3 M), T = 36 min) is “.013 Ad/5 Min”. Besides, the “Change in Ad in 5 Minutes” value under setting [1] is given as “.226 Ad/5 Min”, the “Change in Ad in 5 Minutes” value under setting [2] is recorded as “.072 Ad/5 Min”, the “Change in Ad in 5 Minutes” value under setting [3] is on record as “.025 Ad/5 Min” and the “Change in Ad in 5 Minutes” value under setting [4] is listed as “.013 Ad/5 Min”.
